Test systems include MDA-MB-231 breast; BT-549 breast; UACC-62 melanoma; NCI-H23 lung; SW-620 colon; A549 NSCLC; SF-268 CNS; SNB-75 CNS.
Assay in all cases: inhibition of tumour cell growth, NCI panel, 48 h

We go through ten compounds from PubChem BioAssay (NCI).

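A five-concentration, 48-hour dose response in 96-well plates underlies each endpoint, interpolated linearly between surrounding concentrations. GI50 = concentration required for 50% inhibition of growth. TGI is the concentration that stops growth completely.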 Bounds are passed on as bounds.

With `NC(=O)CC1OC(=O)Cc2cc3c(c(O)c21)C(=O)c1c(O)cccc1C3=O` (stereo not given), the TGI with MDA-MB-231 breast, with BT-549 breast, in the experiment on UACC-62 melanoma, in the experiment on NCI-H23 lung, in the experiment with SW-620 colon and in the experiment with A549 NSCLC was above 100 µM throughout.
On to `Oc1ccccc1-c1nn(CNc2ccc(Cl)cc2)c(=S)o1`, for which the GI50 with MDA-MB-231 breast was above 100000 nM; with BT-549 breast, 61.1 µM; in the experiment on UACC-62 melanoma, 633 nM; in the experiment on NCI-H23 lung, 511 nM; in the experiment with SW-620 colon it was 22.4 µM; with A549 NSCLC it was 26.3 µM. Besides, in the experiment on SF-268 CNS, the GI50 was 9.2 µM. In addition, the TGI in the experiment on MDA-MB-231 breast was above 100 µM; in the experiment on BT-549 breast, above 100 µM; in the experiment on UACC-62 melanoma it was above 100 µM; with NCI-H23 lung, 64.5 µM; with SW-620 colon, above 100 µM; in the experiment on A549 NSCLC, 99.2 µM. Further, the TGI with SF-268 CNS is above 100 µM.
Take `COc1ccc2c(c1)c(-c1nc(-c3cn(C)c4ccncc34)cs1)cn2C`: the GI50 in the experiment with MDA-MB-231 breast was 1830 nM; in the experiment with UACC-62 melanoma, 2090 nM; in the experiment with NCI-H23 lung, 1810 nM; in the experiment on SW-620 colon, 1.96 µM; in the experiment on A549 NSCLC, 1.93 µM; in the experiment on SF-268 CNS it was 2.07 µM. Also, in the experiment with SNB-75 CNS, the GI50 was 14.7 µM. The TGI was 3.53 µM in the experiment on MDA-MB-231 breast; 4.78 µM in the experiment with UACC-62 melanoma; 3.45 µM with NCI-H23 lung; 3.73 µM with SW-620 colon; 3.99 µM in the experiment on A549 NSCLC; 4.4 µM in the experiment on SF-268 CNS. In the experiment with SNB-75 CNS, the TGI was 28 µM.
Take `CC1=CCC2CC1C(C(=O)c1c[nH]c3ccccc13)=NC2(C)C` (stereo not given): the TGI with MDA-MB-231 breast, with BT-549 breast, with UACC-62 melanoma, in the experiment on NCI-H23 lung, in the experiment with SW-620 colon and in the experiment with A549 NSCLC was above 100 µM in each case. Moreover, the TGI with SF-268 CNS is above 100 µM.
With `NC(=O)c1cc(N2CC2)c([N+](=O)[O-])cc1[N+](=O)[O-]`, the TGI with MDA-MB-231 breast, in the experiment on UACC-62 melanoma, in the experiment on NCI-H23 lung, in the experiment on SW-620 colon, with A549 NSCLC and with SF-268 CNS was above 200 µM throughout. Besides, in the experiment on SNB-75 CNS, the TGI is above 200 µM. The GI50 was above 200000 nM with UACC-62 melanoma; above 200000 nM in the experiment on NCI-H23 lung; above 200 µM with SW-620 colon; above 200 µM in the experiment with SF-268 CNS; above 200 µM in the experiment with SNB-75 CNS.
`Cc1cc(OCc2nnc3n2S(=O)(=O)c2ccccc2N3C)ccc1Cl`: the TGI was 41.7 µM in the experiment on MDA-MB-231 breast; 36.4 µM with BT-549 breast; 52.9 µM in the experiment with UACC-62 melanoma; above 100 µM with NCI-H23 lung; above 100 µM with SW-620 colon; above 100 µM in the experiment on A549 NSCLC. Besides, in the experiment on SF-268 CNS, the TGI was 68 µM.
As for `NC(=S)N/N=C/c1ccc(OC(=O)COc2cc(Cl)c(Cl)cc2Cl)cn1`, the GI50 was 4530 nM in the experiment on MDA-MB-231 breast; 3.92 µM in the experiment with BT-549 breast; 3460 nM with UACC-62 melanoma; 3260 nM with NCI-H23 lung; 5.75 µM with SW-620 colon; 24.4 µM in the experiment on A549 NSCLC. In addition, the GI50 in the experiment with SF-268 CNS was 3.52 µM. For the same compound, the TGI was above 100 µM with MDA-MB-231 breast; above 100 µM with BT-549 breast; 22.4 µM with UACC-62 melanoma; above 100 µM in the experiment on NCI-H23 lung; above 100 µM in the experiment with SW-620 colon; above 100 µM in the experiment with A549 NSCLC. In addition, the TGI in the experiment on SF-268 CNS was 43.6 µM.
Regarding `C=C(C)[C@@H]1CC[C@]2(CO)CC[C@]3(C)[C@H](CC[C@@H]4[C@@]5(C)CCCNC(C)(C)[C@@H]5CC[C@]43C)[C@@H]12`, the GI50 in the experiment on MDA-MB-231 breast is 1770 nM; in the experiment on UACC-62 melanoma, 1820 nM; in the experiment with NCI-H23 lung it was 1710 nM; in the experiment with SW-620 colon, 1.81 µM; in the experiment with A549 NSCLC it was 1.73 µM; in the experiment on SF-268 CNS it was 1.74 µM. The GI50 in the experiment with SNB-75 CNS was 1.54 µM. Also, the TGI stood at 3.21 µM in the experiment with MDA-MB-231 breast; 3.25 µM in the experiment on UACC-62 melanoma; 3.39 µM in the experiment on NCI-H23 lung; 3.41 µM in the experiment with SW-620 colon; 3.24 µM in the experiment with A549 NSCLC; 3.54 µM in the experiment on SF-268 CNS. In the experiment on SNB-75 CNS, this compound gave a TGI of 2.91 µM.
Turning to `[N-]=[N+]=NCN1C(=O)C2C3C=CC(C2C1=O)C1C2C(=O)N(CN=[N+]=[N-])C(=O)C2C31` (stereo not given), the TGI with UACC-62 melanoma, with NCI-H23 lung, in the experiment on SW-620 colon, in the experiment on A549 NSCLC and in the experiment with SF-268 CNS was above 100 µM in each case.
As for `Cc1ccc(OCC2CO2)c(Br)c1` (stereo not given), the TGI in the experiment with MDA-MB-231 breast came out at 58 µM; in the experiment on BT-549 breast, 0.879 µM; with UACC-62 melanoma, 37.7 µM; in the experiment on NCI-H23 lung it was 76.7 µM; with SW-620 colon, 33 µM; in the experiment with A549 NSCLC it was 62.2 µM. This compound also had a TGI in the experiment with SF-268 CNS of 42.6 µM.
